GI50 and TGI data for nine molecules are collected here from PubChem BioAssay (NCI).

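Cells were grown in 96-well plates and exposed to each compound for 48 hours at five concentrations; endpoints were interpolated linearly between bracketing concentrations, or set to the highest concentration if not reached. The concentration for 50% growth inhibition is given as GI50. TGI denotes the concentration required for complete inhibition of growth.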

Test systems include DU-145 prostate; NCI-H23 lung; OVCAR-3 ovarian; 786-0 renal; SK-MEL-5 melanoma; IGROV1 ovarian; RPMI-8226 leukemia; NCI-H460 lung; CCRF-CEM leukemia; EKVX NSCLC.
Holding throughout (test): NCI tumour cell line growth inhibition, 48 h

Regarding `O=C1NC(=NCCc2ccc(F)cc2)S/C1=C\c1ccc2ncccc2c1`, the GI50 in the test with DU-145 prostate, with NCI-H23 lung, with OVCAR-3 ovarian, in the test on 786-0 renal, in the test on SK-MEL-5 melanoma and in the test with IGROV1 ovarian was above 25 µM in each case. Further, the GI50 in the test with RPMI-8226 leukemia, with NCI-H460 lung and with CCRF-CEM leukemia was above 25 µM each time. Besides, the TGI in the test with DU-145 prostate, with NCI-H23 lung, in the test on OVCAR-3 ovarian, in the test on 786-0 renal, with SK-MEL-5 melanoma and with IGROV1 ovarian was above 25 µM throughout. Further, the TGI in the test on RPMI-8226 leukemia, in the test with NCI-H460 lung and in the test on CCRF-CEM leukemia was above 25 µM in each case.
`CCOC(=O)c1c(-c2ccccc2)[n+](=O)c2cc(Cl)c(Cl)cc2n1[O-]`: the GI50 is 17.6 µM in the test with EKVX NSCLC; 9.4 µM with DU-145 prostate; 10.1 µM in the test on NCI-H23 lung; 1.8 µM with OVCAR-3 ovarian; 1.54 µM in the test with 786-0 renal; 14.8 µM with SK-MEL-5 melanoma. The GI50 with IGROV1 ovarian was 1.63 µM; with RPMI-8226 leukemia it was 0.285 µM; with NCI-H460 lung it was 18.9 µM. In addition, the TGI with EKVX NSCLC is 34.5 µM; with DU-145 prostate, 22.9 µM; in the test with NCI-H23 lung, 25.8 µM; in the test with OVCAR-3 ovarian it was 4.41 µM; with 786-0 renal, 2.87 µM; with SK-MEL-5 melanoma, 28.8 µM. The figures for the TGI with IGROV1 ovarian, in the test with RPMI-8226 leukemia and in the test on NCI-H460 lung were above 100 µM, 1.51 µM and 46.7 µM, respectively.
As to `N#CCn1c(=O)c(Oc2ccc(F)cc2F)cc2cnc(NC3CCOCC3)nc21`, the GI50 in the test on DU-145 prostate, with NCI-H23 lung, in the test on OVCAR-3 ovarian, in the test on 786-0 renal, in the test on SK-MEL-5 melanoma and in the test on IGROV1 ovarian was above 25 µM throughout. Also, the GI50 with RPMI-8226 leukemia, in the test with NCI-H460 lung and in the test with CCRF-CEM leukemia was above 25 µM in each case. The TGI in the test on DU-145 prostate, in the test on NCI-H23 lung, in the test with OVCAR-3 ovarian, in the test with 786-0 renal, with SK-MEL-5 melanoma and in the test on IGROV1 ovarian was above 25 µM each time. Also, the TGI with RPMI-8226 leukemia, in the test with NCI-H460 lung and in the test with CCRF-CEM leukemia was above 25 µM throughout.
Turning to `CSC1=NC(=Nc2c(C)cccc2C)C2(CCC(C(C)(C)C)CC2)N1c1ccc(Cl)cc1` (centres undefined), the GI50 was above 100 µM in the test with DU-145 prostate; 24.7 µM in the test with NCI-H23 lung; 54.1 µM in the test on OVCAR-3 ovarian; 68.7 µM in the test on 786-0 renal; 9.32 µM in the test with SK-MEL-5 melanoma; 63.5 µM with IGROV1 ovarian. The GI50 with RPMI-8226 leukemia is 6.35 µM; with NCI-H460 lung it was 4.68 µM. Also, the TGI in the test with DU-145 prostate, in the test on NCI-H23 lung, in the test on OVCAR-3 ovarian, in the test on 786-0 renal, in the test on SK-MEL-5 melanoma and with IGROV1 ovarian was above 100 µM throughout. Also, the TGI with RPMI-8226 leukemia and in the test with NCI-H460 lung was above 100 µM throughout.
Regarding `O=C1NC(=NCc2ccccc2Cl)S/C1=C\c1ccc2ncccc2c1`, the GI50 in the test on DU-145 prostate is 11.2 µM; in the test with NCI-H23 lung, 13.5 µM; in the test with OVCAR-3 ovarian, 17.6 µM; in the test on 786-0 renal it was 16.3 µM; in the test with SK-MEL-5 melanoma it was 22.4 µM; in the test with IGROV1 ovarian, 9.01 µM. For the same molecule, the GI50 in the test with RPMI-8226 leukemia was 17 µM; in the test on NCI-H460 lung, 10.6 µM; with CCRF-CEM leukemia it was 11.2 µM. Further, the TGI with DU-145 prostate, in the test on NCI-H23 lung, in the test on OVCAR-3 ovarian, in the test on 786-0 renal, with SK-MEL-5 melanoma and in the test on IGROV1 ovarian was above 25 µM in each case. The TGI in the test with RPMI-8226 leukemia, in the test with NCI-H460 lung and with CCRF-CEM leukemia was above 25 µM in each case.
`Cc1nc(N)nc(N)c1CCCCc1ccc(N)cc1`: the TGI in the test with EKVX NSCLC turned out to be 27.3 µM; in the test on NCI-H23 lung, 15.8 µM; in the test on OVCAR-3 ovarian, 20.9 µM; with 786-0 renal it was 18.9 µM; in the test with SK-MEL-5 melanoma, 16.5 µM; with IGROV1 ovarian it was 21.2 µM. The TGI with RPMI-8226 leukemia is 26.5 µM; in the test on NCI-H460 lung, 13.6 µM; in the test on CCRF-CEM leukemia, 22.5 µM.
With `CC(=O)Nc1ccc(C(=O)CCl)cc1`, the GI50 in the test on DU-145 prostate was 9.19 µM; in the test with NCI-H23 lung, 11.4 µM; in the test with OVCAR-3 ovarian, 2.55 µM; with 786-0 renal it was 4.41 µM; in the test with SK-MEL-5 melanoma it was 15.9 µM; in the test with IGROV1 ovarian, 14.8 µM. Further, the results for the GI50 in the test with RPMI-8226 leukemia, in the test on NCI-H460 lung and in the test with CCRF-CEM leukemia were 2.95 µM, 10.8 µM and 2.41 µM, respectively. Moreover, the TGI with DU-145 prostate worked out at 21.2 µM; with NCI-H23 lung, 31.6 µM; with OVCAR-3 ovarian, 5.82 µM; with 786-0 renal, 15.2 µM; with SK-MEL-5 melanoma it was 31 µM; in the test on IGROV1 ovarian, 31 µM. Moreover, the TGI in the test with RPMI-8226 leukemia was determined as 10 µM; in the test on NCI-H460 lung, 26 µM; in the test with CCRF-CEM leukemia, 7.51 µM.
In the case of `CC(C)(C)c1cc(C(=O)Nc2ccccc2C(=O)NCCN)cc(C(C)(C)C)c1`, the GI50 with EKVX NSCLC was 1.76 µM; with DU-145 prostate, 1.84 µM; in the test with NCI-H23 lung, 1.94 µM; in the test with OVCAR-3 ovarian it was 1.89 µM; with 786-0 renal it was 1.75 µM; in the test on SK-MEL-5 melanoma, 1.82 µM. The GI50 is 1.94 µM in the test on NCI-H460 lung and 2.5 µM in the test on CCRF-CEM leukemia. For the same molecule, the TGI in the test with EKVX NSCLC was determined as 3.96 µM; with DU-145 prostate it was 3.4 µM; in the test on NCI-H23 lung, 3.89 µM; with OVCAR-3 ovarian, 3.46 µM; in the test on 786-0 renal, 3.51 µM; with SK-MEL-5 melanoma, 3.27 µM. For the same molecule, the TGI in the test with NCI-H460 lung was found to be 3.67 µM; in the test on CCRF-CEM leukemia, 6.36 µM.
Turning to `COc1cc([N+](=O)[O-])c(OC)cc1-c1nc2sc(C)c(C)n2c1/C(N)=N/C(=N)N`, the GI50 with EKVX NSCLC is above 100 µM; with DU-145 prostate, above 100 µM; in the test on NCI-H23 lung, above 100 µM; with 786-0 renal, above 100 µM; with SK-MEL-5 melanoma it was 8.14 µM; in the test with IGROV1 ovarian it was above 100 µM. The results for the GI50 in the test with RPMI-8226 leukemia, with NCI-H460 lung and in the test on CCRF-CEM leukemia were 59.3 µM, above 100 µM and 6.01 µM, respectively. For the same molecule, the TGI in the test with EKVX NSCLC, in the test on DU-145 prostate, with NCI-H23 lung, with 786-0 renal, in the test with SK-MEL-5 melanoma and with IGROV1 ovarian was above 100 µM in each case. Besides, the TGI in the test on RPMI-8226 leukemia, in the test on NCI-H460 lung and in the test with CCRF-CEM leukemia was above 100 µM in each case.
